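Dose response: 5 concentrations. Exposure: 48 h. Format: 96-well plates. Endpoint: linear interpolation; highest concentration if not reached. Abbreviation: GI50, concentration required for 50% inhibition of growth.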 Activity calls are given as the source filed them. Rule as the data show it: active = GI50 up to about 1.1 µM and inactive = higher.
How the values were obtained:
Assay in all cases: NCI-60 cell line screen, 48 h
[1] = tested on: SN12C
[2] = tested on: PC-3
[3] = tested on: HCC 2998
[4] = tested on: MDA-MB-435
[5] = tested on: HOP-62
[6] = tested on: NCI/ADR-RES
[7] = tested on: OVCAR-3
[8] = tested on: UACC-62
[9] = tested on: A549
[10] = tested on: SNB-75
[11] = tested on: TK-10
[12] = tested on: NCI-H23
[13] = tested on: CCRF-CEM
[14] = tested on: SK-OV-3
[15] = tested on: SK-MEL-2
[16] = tested on: BT-549
[17] = tested on: HOP-92
[18] = tested on: MDA-MB-231
[19] = tested on: KM12
[20] = tested on: SK-MEL-5
[21] = tested on: NCI-H226
[22] = tested on: U-251
[23] = tested on: RXF 393
[24] = tested on: Hs-578T
[25] = tested on: IGROV-1
[26] = tested on: A498
[27] = tested on: SF-268
[28] = tested on: 786-0
[29] = tested on: DU-145
[30] = tested on: SK-MEL-28
[31] = tested on: HCT-116
[32] = tested on: RPMI-8226
[33] = tested on: M14
[34] = tested on: ACHN
[35] = tested on: LOX IMVI
[36] = tested on: HCT-15
[37] = tested on: SF-295
[38] = tested on: MCF7
[39] = tested on: MOLT-4
[40] = tested on: SW-620
[41] = tested on: NCI-H522
[42] = tested on: OVCAR-5
[43] = tested on: EKVX
[44] = tested on: HL-60
[45] = tested on: K562
[46] = tested on: UO-31
[47] = tested on: SF-539
[48] = tested on: OVCAR-8
[49] = tested on: SNB-19
[50] = tested on: OVCAR-4
[51] = tested on: HT-29
[52] = tested on: COLO 205
[53] = tested on: Malme-3M
[54] = tested on: UACC-257
[55] = tested on: NCI-H460
[56] = tested on: T47D
[57] = tested on: CAKI-1
[58] = tested on: SR
[59] = tested on: MDA-N

Measured: GI50

O=C(O)CCC1NC(/C(=C/c2ccccc2O)NC(=O)c2ccccc2)OC1=O (stereo unspecified)
inactive: [1] > 100 µM | [2] > 100 µM | [3] > 100 µM | [4] 15.8 µM | [5] 17.5 µM | [6] 88.5 µM | [7] > 100 µM | [8] > 100 µM | [9] > 100 µM | [10] 23.2 µM | [11] 56.1 µM | [12] > 100 µM | [13] > 100 µM | [14] 44.2 µM | [15] > 100 µM | [16] 72.6 µM | [17] > 100 µM | [18] 46.9 µM | [19] 4.57 µM | [20] > 100 µM | [21] 72.3 µM | [22] 37.2 µM | [23] 34.2 µM | [24] 43.8 µM | [25] 30.5 µM | [26] > 100 µM | [27] 61.5 µM | [28] 46.7 µM | [29] > 100 µM | [30] > 100 µM | [31] 67.3 µM | [32] > 100 µM | [33] > 100 µM | [34] 33 µM | [35] > 100 µM | [37] 35.4 µM | [38] 3.39 µM | [39] > 100 µM | [40] > 100 µM | [41] 64.1 µM | [42] > 100 µM | [43] > 100 µM | [44] > 100 µM | [45] > 100 µM | [46] 18 µM | [47] 95.3 µM | [48] 46.8 µM | [49] 32.5 µM | [50] > 100 µM | [51] > 100 µM | [52] > 100 µM | [53] > 100 µM | [54] 27.5 µM | [55] > 100 µM | [56] 16 µM | [57] > 100 µM
> 100 µM: [36]

Cc1ccc(-n2cc(-c3ccc(Cl)cc3)c3c(NN)ncnc32)cc1
inactive: [1] 2.84 µM | [2] 5.55 µM | [3] 2.89 µM | [58] 3.41 µM | [4] 4.65 µM | [5] 2.43 µM | [6] 3.64 µM | [8] 2.67 µM | [9] 3.26 µM | [10] 1.39 µM | [11] 12.4 µM | [12] 3.04 µM | [14] 5.14 µM | [15] 15.1 µM | [17] 2.97 µM | [18] 6.89 µM | [19] 10.7 µM | [20] 1.57 µM | [21] 2.38 µM | [22] 1.82 µM | [59] 8.83 µM | [23] 2.75 µM | [25] 1.85 µM | [27] 2.64 µM | [28] 2.55 µM | [29] 3.49 µM | [30] 3.66 µM | [31] 2.4 µM | [33] 1.38 µM | [34] 3.31 µM | [35] 4.68 µM | [37] 3.36 µM | [39] 2.36 µM | [40] 6.07 µM | [41] 3.58 µM | [42] 6.43 µM | [43] 3.3 µM | [44] 2.1 µM | [45] 2.88 µM | [46] 3.82 µM | [47] 2.51 µM | [48] 3.24 µM | [49] 2.93 µM | [50] 1.73 µM | [51] 4.48 µM | [52] 1.72 µM | [53] 3.1 µM | [54] 3.97 µM | [55] 3.4 µM | [56] 2.55 µM | [57] 4.33 µM
active: [7] 0.357 µM | [13] 0.566 µM
4.4 µM: [36]

Cc1c(CCN=P(c2ccccc2)(c2ccccc2)c2ccccc2)c(=O)n2c([nH]c3ccccc32)c1C#N
> 10 µM: [36]
inactive: [1] > 10 µM | [2] > 10 µM | [3] > 10 µM | [58] 8.75 µM | [5] > 10 µM | [8] > 10 µM | [9] > 10 µM | [10] > 10 µM | [11] > 10 µM | [12] > 10 µM | [13] 6.93 µM | [14] > 10 µM | [18] > 10 µM | [19] > 10 µM | [20] > 10 µM | [59] > 10 µM | [23] > 10 µM | [25] > 10 µM | [27] > 10 µM | [28] > 10 µM | [29] > 10 µM | [30] > 10 µM | [32] > 10 µM | [33] > 10 µM | [35] > 10 µM | [37] > 10 µM | [38] > 10 µM | [39] 6.19 µM | [40] > 10 µM | [43] > 10 µM | [44] 7.21 µM | [45] 8.36 µM | [48] > 10 µM | [51] > 10 µM | [52] > 10 µM | [53] > 10 µM | [54] > 10 µM | [56] > 10 µM | [57] > 10 µM
